Reference: PubChem BioAssay (NCI)
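Method: 48-hour compound exposure of cells in 96-well plates, five concentrations, linear interpolation of endpoints. The concentration for full growth arrest is given as TGI.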

Key:
Assay in all cases: NCI tumour cell line growth inhibition, 48 h
XF 498 CNS = tested on: XF 498 CNS
M19-MEL melanoma = tested on: M19-MEL melanoma
DMS 114 small cell lung = tested on: DMS 114 small cell lung
DLD-1 colon = tested on: DLD-1 colon
DMS 273 small cell lung = tested on: DMS 273 small cell lung
RXF-631 renal = tested on: RXF-631 renal
SN12K1 renal = tested on: SN12K1 renal
P388 leukemia = tested on: P388 leukemia
P388/ADR leukemia = tested on: P388/ADR leukemia

COC(=O)CC(=O)OC1C[C@@H]2CCC3C(C)(C)CCC[C@]3(C)C23CC[C@@]1(C)C3 (some centres not stated)
TGI (XF 498 CNS): 34.4 µM
TGI (M19-MEL melanoma): 36.3 µM
TGI (DMS 114 small cell lung): 37.9 µM
TGI (DLD-1 colon): 34.2 µM

N#C/C(=C/c1ccc([N+](=O)[O-])o1)c1ccccc1
TGI (M19-MEL melanoma): > 100 µM
TGI (DMS 273 small cell lung): > 100 µM
TGI (DMS 114 small cell lung): > 100 µM
TGI (DLD-1 colon): > 100 µM

O=C1CCNC/C1=C\c1ccccc1
TGI (XF 498 CNS): 74.7 µM
TGI (RXF-631 renal): > 100 µM
TGI (M19-MEL melanoma): 39.3 µM
TGI (DMS 273 small cell lung): 69.1 µM
TGI (DMS 114 small cell lung): 73.4 µM
TGI (DLD-1 colon): 48.3 µM

CNC(=O)OC1/C(C)=C\C(C)C(O)C(OC)CC(C)CC2=C(OC)C(=O)C=C(C2=O)N(C)C(=O)/C(C)=C/C=C\C1OC (configuration not stated)
TGI (XF 498 CNS): 10 µM
TGI (RXF-631 renal): 41.2 µM
TGI (M19-MEL melanoma): 14.7 µM
TGI (DMS 273 small cell lung): 14.8 µM
TGI (DMS 114 small cell lung): 12.6 µM
TGI (DLD-1 colon): 16.4 µM

O=C1N[C@@H]([C@H]2CC[C@H](Cl)CN2)C(=O)N[C@H]1[C@H]1CC[C@H](Cl)CN1
TGI (SN12K1 renal): 13.5 µM
TGI (P388 leukemia): 20.3 µM
TGI (XF 498 CNS): 0.819 µM
TGI (M19-MEL melanoma): 23.5 µM
TGI (DMS 273 small cell lung): 7.35 µM
TGI (DMS 114 small cell lung): 10.6 µM
TGI (DLD-1 colon): 286 µM
TGI (P388/ADR leukemia): 23.1 µM

O=S(c1ccc(O)cc1)c1ccc(O)cc1
TGI (XF 498 CNS): > 100 µM
TGI (RXF-631 renal): > 100 µM
TGI (M19-MEL melanoma): > 100 µM
TGI (DMS 273 small cell lung): > 100 µM
TGI (DMS 114 small cell lung): > 100 µM
TGI (DLD-1 colon): > 100 µM

CCCC(O)c1ccc2[nH]c3c(C)cc([N+](=O)[O-])c(C)c3c2c1 (configuration not stated)
TGI (XF 498 CNS): > 100 µM
TGI (M19-MEL melanoma): > 100 µM
TGI (DMS 273 small cell lung): > 100 µM
TGI (DMS 114 small cell lung): > 100 µM
TGI (DLD-1 colon): > 100 µM

COc1ccc(N2C(=O)[C@@H]3[C@@H]4CC(C)CC[C@@H]4c4c([nH]c5ccccc45)[C@@H]3C2=O)cc1 (some centres not stated)
TGI (XF 498 CNS): 26 µM
TGI (M19-MEL melanoma): > 100 µM
TGI (DMS 273 small cell lung): 44.3 µM
TGI (DMS 114 small cell lung): > 59.5 µM
TGI (DLD-1 colon): > 58.4 µM

COC(OC)c1cccc2c1C(=O)CCC1(CC2)OCCCCO1
TGI (M19-MEL melanoma): > 100 µM
TGI (DMS 273 small cell lung): > 100 µM
TGI (DMS 114 small cell lung): > 100 µM
TGI (DLD-1 colon): > 100 µM

COC1=CC(=O)C2(C=C1OC)OC[C@H]1Oc3c(ccc4c3C=CC(C)(C)O4)C(=O)[C@H]12 (some centres not stated)
TGI (XF 498 CNS): > 100 µM
TGI (RXF-631 renal): > 100 µM
TGI (M19-MEL melanoma): > 100 µM
TGI (DMS 273 small cell lung): > 100 µM
TGI (DMS 114 small cell lung): 94.5 µM
TGI (DLD-1 colon): > 100 µM

CN1C/C(=C\c2ccccc2)C2=NN(C(N)=S)[C@H](c3ccccc3)[C@@H]2C1
TGI (XF 498 CNS): > 100 µM
TGI (M19-MEL melanoma): > 100 µM
TGI (DMS 273 small cell lung): > 100 µM
TGI (DLD-1 colon): > 100 µM

CC(=O)OC1CCC2(C)C(CCC3C2CCC2(C)C(c4ccc(=O)oc4)C(OC(C)=O)CC32O)C1 (configuration not stated)
TGI (SN12K1 renal): 0.0296 µM
TGI (P388 leukemia): 125 µM
TGI (XF 498 CNS): 0.0771 µM
TGI (DMS 273 small cell lung): 0.0194 µM
TGI (DLD-1 colon): 0.0293 µM
TGI (P388/ADR leukemia): 125 µM

O=C1OCc2nc3c(c(-c4ccccc4C(F)(F)F)c21)C(=O)OC3
TGI (M19-MEL melanoma): > 100 µM
TGI (DMS 273 small cell lung): > 100 µM
TGI (DMS 114 small cell lung): > 100 µM
TGI (DLD-1 colon): > 100 µM

Cc1cc2c3ccccc3n3c2c2c1OC1(C)CCC(C2C1)C3(C)C (configuration not stated)
TGI (XF 498 CNS): > 25 µM
TGI (M19-MEL melanoma): > 25 µM
TGI (DMS 273 small cell lung): > 25 µM
TGI (DMS 114 small cell lung): > 25 µM
TGI (DLD-1 colon): > 25 µM

O=C(CC(C(=O)c1ccsc1)c1cccs1)c1cccs1 (configuration not stated)
TGI (XF 498 CNS): > 100 µM
TGI (M19-MEL melanoma): > 100 µM
TGI (DMS 273 small cell lung): > 100 µM
TGI (DMS 114 small cell lung): > 100 µM
TGI (DLD-1 colon): > 100 µM

CCN(CC)C(=O)Cc1[nH][nH]c(=O)c1C(=O)N(CC)CC
TGI (XF 498 CNS): > 100 µM
TGI (M19-MEL melanoma): > 100 µM
TGI (DMS 273 small cell lung): > 100 µM
TGI (DMS 114 small cell lung): > 100 µM
TGI (DLD-1 colon): > 100 µM

CCOC(=O)CN(CC)C(=O)NC12CC3CC(CC(C3)C1)C2
TGI (SN12K1 renal): 569 µM
TGI (P388 leukemia): 508 µM
TGI (XF 498 CNS): 293 µM
TGI (M19-MEL melanoma): 472 µM
TGI (DMS 273 small cell lung): > 705 µM
TGI (DMS 114 small cell lung): 363 µM
TGI (DLD-1 colon): > 119 µM
TGI (P388/ADR leukemia): 640 µM

Cc1c(CCCl)c(Cl)n2c(nc3ccccc32)c1C#N
TGI (RXF-631 renal): 2.18 µM
TGI (M19-MEL melanoma): 9.76 µM
TGI (DMS 273 small cell lung): 3.15 µM
TGI (DMS 114 small cell lung): 2.84 µM
TGI (DLD-1 colon): 2.44 µM

O=C1C=C2SC3C[C@@]24CC1(O)[N+]1=c2c4c(c(O)c4c2=C(C=N4)CC1)N3
TGI (SN12K1 renal): 2.73 µM
TGI (P388 leukemia): 4.78 µM
TGI (XF 498 CNS): 3.28 µM
TGI (M19-MEL melanoma): 0.773 µM
TGI (DMS 273 small cell lung): 2.97 µM
TGI (DMS 114 small cell lung): 0.504 µM
TGI (DLD-1 colon): 2.65 µM

Cc1[nH]c2c(C)c3c([nH]c4ccc(Cl)cc43)c(C)c2c(=O)c1C
TGI (XF 498 CNS): > 100 µM
TGI (M19-MEL melanoma): 54.9 µM
TGI (DMS 273 small cell lung): 96.1 µM
TGI (DMS 114 small cell lung): 83.3 µM
TGI (DLD-1 colon): 73.3 µM

O=[N+]([O-])c1ccc(N=P(c2ccccc2)(c2ccccc2)c2ccccc2)n2nnnc12
TGI (XF 498 CNS): > 100 µM
TGI (M19-MEL melanoma): > 100 µM
TGI (DMS 273 small cell lung): > 100 µM
TGI (DMS 114 small cell lung): > 100 µM
